Data from paper PMC9698773, “Design, Synthesis, Molecular Modeling, and Anticancer Evaluation of New VEGFR-2 Inhibitors Based on the Indolin-2-One Scaffold” (Pharmaceuticals, 2022).
Where “and” joins values, the source holds several entries; their conditions need not be identical. Identical values can stand only once.

System: BAX
Assay: BAX expression assay (Western blot)
Assay type: cell-based, human
Conditions: HepG2, 1.13 µM, 24 h
Description: The expression of BAX and Bcl-2 were evaluated in the HepG2 cells after treatment with 1.13 µM of compound 17a for 24 h. The Western blotting technique was utilized to determine the levels of Bax and Bcl-2 proteins and estimate the Bax/Bcl-2 ratio.
The expression of apoptotic BAX and antiapoptotic Bcl-2 proteins in the liver HepG2 cells treated with 1.13 μM of 17a was determined using Western blot analysis, as described in the Supplementary Materials. […]
Casp3 F: 5ʹ‐ […] ‐3ʹ
Casp3 R: 5ʹ‐ […] ‐3ʹ […]
β‐actin F: 5ʹ‐[…]‐3ʹ […]
β‐actin R: 5ʹ‐[…]‐3ʹ […]
4.2.6. Bax and Bcl‐2 expression assay
The expression of BAX and Bcl‐2 proteins were determined using Western blot anal‐ ysis. In brief, HepG2 cells were treated with control or with the synthesized compound 17a (1.13 μM). Then cells were lysed in 250 μL precold lysis buffer (pH 7.4: Tris‐Base [10 mM], NaCl [100 mM], ethylenediaminetetraacetic acid [EDTA, 25 mM], ethylene glycol bis (2‐ aminoethyl) tetraacetic acid [EGTA, 25 mM], 1% [v/v] NP‐40, and 1% [v/v] Triton X‐100) supplemented with 1:350 protease:phosphatase inhibitors cocktail (Sigma). The cells were immediately frozen at −20°C for 1.5 hours for further analysis, collected by cell scraper, sonicated 3 × 10 seconds, and centrifuged (13000 rpm, 15 minutes). Total protein concentrations in the supernatant were colorimetrically determined using the Pierce 660 nm Protein Assay method (Thermo Fisher Scientific, Rockford, IL), with BSA as the stand‐ ard. Equal amounts of protein (25 μg) samples were mixed with SDS‐loading buffer (pH 6.8: Tris‐HCl [700 mM], dithiothreitol [DTT, 600 mM], sodium dodecyl sulfate [SDS, 12%], glycerol [60%], and bromophenol blue [0.012%]), denatured by boiling at 95°C for 10 minutes, allowed to cool on ice for 15 minutes, vigorously vortexed for 30 seconds, loaded into SDS‐polyacrylamide gel and separated by an electrophoresis unit (Cleaver Scientific Ltd, UK), and transferred onto polyvinylidene fluoride membranes (Bio‐Rad) for 35 minutes using a Trans‐Blot SD semi‐dry transfer cell (Bio‐Rad) at 250 mA and 22 V. Mem‐ branes were blocked with 5% (w/v) blotting grade dry milk (Bio‐Rad) in Tris‐buffered saline/Tween‐20 (TBS‐T) (pH 7.5: Tris‐base [20 mM], NaCl [150 mM], and 0.05% [v/v] Tween‐ 20) while shaken for 1.5 hour at RT, and then incubated with the corresponding primary antibody against BAX (Biovision, USA) and Bcl‐2 (Bioimaging, system, syngene, UK) for 9‐10 hours at 4°C in a humidified chamber. […] Means of the detected blot intensities were then quantified, analyzed by the combined Bio‐Rad Image Lab soft‐ ware and their corresponding background subtracted, with normalization to the corre‐ sponding bands density of β‐actin as the sampling loading control. […]

## O=C1Nc2ccccc2C1=Nc1ccc(C(=O)NNC(=S)Nc2ccccc2)cc1 [Compound 17a, 2-(4-((2-Oxoindolin-3-ylidene)amino)benzoyl)-N-phenylhydrazinecarbothioamide]
  increase of BAX expression versus control: 2.69 fold and 2.7 fold
  increase of BAX/Bcl-2 ratio versus control: 5 fold
Control 0.175
  Protein Expression (Normalized to β-Actin) BAX: 0.472
Control 0.41
  BAX/Bcl-2 Ratio: 2.06
